Results reported in patent publication US6720346B2, “Thiazole benzamide derivatives and pharmaceutical compositions for inhibiting cell proliferation” (Agouron Pharmaceuticals, Inc., priority 2001, dated 2004).

Tests used:
HCT-116 cell line = test: Inhibition of cell growth, MTT tetrazolium salt assay; assay type: cell-based; details: for IC50: Homo sapiens, HCT-116, 120 h, MTT, three to five days
Outline: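 Growth inhibition was read as MTT-formazan absorbance at 540 nm, after 4 h with 0.2 mg/mL MTT. Before that, HCT-116 cells had been exposed 3–5 days at 37 °C to compounds in 0.5% (v/v) DMSO, added 4 h after plating. 50% and 90% inhibitory concentrations were taken from semi-log concentration–inhibition plots versus vehicle controls.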

human CDK4/cyclin D3 = target: T1, human CDK4/cyclin D3 (Homo sapiens, UniProt P11802); test: Inhibition of CDK4/cyclin D retinoblastoma kinase activity (Ki; % inhibition); assay type: biochemical; details: for Ki: apparent Ki, CDK4/cyclin D3, Rb substrate
T1 construct: made in house; host or cells: insect cells co-infected with baculovirus vectors
T1 sequence (P11802 whole entry): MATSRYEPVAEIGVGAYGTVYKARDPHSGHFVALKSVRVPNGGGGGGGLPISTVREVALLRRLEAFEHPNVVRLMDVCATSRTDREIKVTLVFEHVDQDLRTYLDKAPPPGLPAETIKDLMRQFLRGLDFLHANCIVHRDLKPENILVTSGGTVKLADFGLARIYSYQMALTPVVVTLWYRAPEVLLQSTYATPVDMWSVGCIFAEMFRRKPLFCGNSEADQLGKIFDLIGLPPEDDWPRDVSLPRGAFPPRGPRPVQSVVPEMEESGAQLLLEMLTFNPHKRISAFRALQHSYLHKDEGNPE
T1 sequence (P30281 1-264 partner limits assumed): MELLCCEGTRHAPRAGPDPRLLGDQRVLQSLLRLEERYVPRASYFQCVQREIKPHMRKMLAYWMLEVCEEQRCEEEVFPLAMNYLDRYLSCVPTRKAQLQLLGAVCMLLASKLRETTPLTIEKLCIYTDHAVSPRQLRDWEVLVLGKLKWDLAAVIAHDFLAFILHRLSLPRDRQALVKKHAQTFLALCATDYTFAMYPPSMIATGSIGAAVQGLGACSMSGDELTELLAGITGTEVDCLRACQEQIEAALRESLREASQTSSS
Outline: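 Radiometric filter-binding read-out: Rb residues 386-928 phosphorylated by 5 nM CDK4/cyclin D3(1-264) from baculovirus-infected insect cells, 25 μM ATP, HEPES pH 7.4, 30 °C. Run 20 min, or 60 min for tight-binding inhibitors. Screening at 30 nM theoretical compound; apparent Ki by competitive-inhibition fitting.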

CDK2/cyclin A = target: T2, CDK2/cyclin A (Homo sapiens, UniProt P24941); test: Inhibition of CDK2/cyclin A retinoblastoma kinase activity (Ki; % inhibition); assay type: biochemical; details: for Ki: apparent Ki, CDK2/cyclin A, Rb substrate
T2 construct: made in house; host or cells: CDK2: insect cells (baculovirus); cyclin A: E. coli
Outline: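 Apparent Ki values came from fitting concentration-dependent activity data to competitive (or competitive tight-binding) models, and % inhibition from single 30 nM screens of library compounds. Activity was measured as ³²P/³³P incorporation from 25 μM ATP into an Rb substrate by 10 or 19 nM CDK2/delta cyclin A at 30 °C over 60–75 min, pH 7.4.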

[1] = HCT-116 cells, 0.25 μM compound

Row | CDK4 % Inhibition at 0.03 μM (human CDK4/cyclin D3; 0.03 μM compound) | CDK2 % Inhibition at 0.03 μM (CDK2/cyclin A; 0.03 μM compound) | CDK4 % Inhibition at 0.03 μM (human CDK4/cyclin D3; at 0.03 μM) | CDK2 % Inhibition at 0.03 μM (CDK2/cyclin A; at 0.03 μM) | Compound | HCT-116 % Inhibition at 0.1 μM (HCT-116 cell line; HCT-116 cells, 0.1 μM compound) | HCT-116 % Inhibition at 0.25 μM (HCT-116 cell line; [1]) | HCT-116 % Inhibition at 0.25 μM (HCT-116 cell line; HCT-116, at 0.25 μM) | HCT-116 % Inhibition at 0.1 μM (HCT-116 cell line; HCT-116, at 0.1 μM) | also measured
1 | 11% | 18% |  |  | Nc1nc(Nc2ccc(C(=O)N(CCCO)Cc3ccccn3)cc2)sc1C(=O)c1c(F)cccc1F [Example G243] | 31% | 40% |  |  | 
2 | −6% | 20% |  |  | Nc1nc(Nc2ccc(C(=O)NC3c4ccccc4CC3O)cc2)sc1C(=O)c1c(F)cccc1F (stereo not drawn) [Example G376] | 27% | 64% |  |  | 
3 | 2% | −43% |  |  | Nc1nc(Nc2ccc(C(=O)N3CCN(CCO)CC3)cc2)sc1C(=O)c1c(F)cccc1F [Example G257] | 33% | 51% |  |  | 
4 | 4% | −12% |  |  | CCCN(CCc1ccccn1)C(=O)c1ccc(Nc2nc(N)c(C(=O)c3c(F)cccc3F)s2)cc1 [Example G322] | 13% | 50% |  |  | 
5 | 17% | 8% |  |  | CCCN(CCC)C(=O)c1ccc(Nc2nc(N)c(C(=O)c3c(F)cccc3F)s2)cc1 [Example G248] | 13% | 55% |  |  | 
6 | 36% | 29% |  |  | Nc1nc(Nc2ccc(C(=O)NCc3cccc(Cl)c3Cl)cc2)sc1C(=O)c1c(F)cccc1F [Example G216] | 16% | 54% |  |  | 
7 | 20% | 0% |  |  | N#CCCN(Cc1ccccc1)C(=O)c1ccc(Nc2nc(N)c(C(=O)c3c(F)cccc3F)s2)cc1 [Example G304] | 15% | 54% |  |  | 
8 | −5% | −16% |  |  | CC(C)C[C@@H](CO)NC(=O)c1ccc(Nc2nc(N)c(C(=O)c3c(F)cccc3F)s2)cc1 [Example G333] | 4% | 51% |  |  | 
9 | 7% | 1% |  |  | CCCCOc1ccc(NC(=O)c2ccc(Nc3nc(N)c(C(=O)c4c(F)cccc4F)s3)cc2)cc1 [Example G205] | 12% | 52% |  |  | 
10 | 8% | 40% |  |  | Nc1nc(Nc2ccc(C(=O)Nc3cccc(O)c3)cc2)sc1C(=O)c1c(F)cccc1F [Example G378] | 27% | 60% |  |  | 
11 | 8% | 1% |  |  | Nc1nc(Nc2ccc(C(=O)NCCSCCO)cc2)sc1C(=O)c1c(F)cccc1F [Example G366] | 26% | 55% |  |  | 
12 | 28% | 16% |  |  | CCN(CC)C(=O)C1CCCN(C(=O)c2ccc(Nc3nc(N)c(C(=O)c4c(F)cccc4F)s3)cc2)C1 (stereo not drawn) [Example G224] | 10% | 53% |  |  | 

More lines, now with the values behind:

Row | Compound | CDK4 % Inhibition at 0.03 μM (human CDK4/cyclin D3; 0.03 μM compound) | CDK2 % Inhibition at 0.03 μM (CDK2/cyclin A; 0.03 μM compound) | CDK4 % Inhibition at 0.03 μM (human CDK4/cyclin D3; at 0.03 μM) | CDK2 % Inhibition at 0.03 μM (CDK2/cyclin A; at 0.03 μM) | HCT-116 % Inhibition at 0.1 μM (HCT-116 cell line; HCT-116 cells, 0.1 μM compound) | HCT-116 % Inhibition at 0.25 μM (HCT-116 cell line; [1]) | HCT-116 % Inhibition at 0.25 μM (HCT-116 cell line; HCT-116, at 0.25 μM) | HCT-116 % Inhibition at 0.1 μM (HCT-116 cell line; HCT-116, at 0.1 μM) | also measured
13 | Nc1nc(Nc2ccc(C(=O)N3CCSC3)cc2)sc1C(=O)c1c(F)cccc1F [Example G33] |  |  | 10% | −3% |  |  | 54% |  | 
14 | COc1ccc(C)c(NC(=O)c2ccc(Nc3nc(N)c(C(=O)c4c(F)cccc4F)s3)cc2)c1 [Example A19, 4-[4-Amino-5-(2,6-difluoro-benzoyl)-thiazol-2-ylamino]-N-(5-methoxy-2-methyl-phenyl)-benzamide] |  |  |  |  |  |  |  |  | IC50 (HCT-116 cell line): 110 nM; Ki (human CDK4/cyclin D3): 105 nM; Ki (CDK2/cyclin A): 64 nM
15 | Nc1nc(Nc2ccc(C(=O)N[C@H]3CCc4ccccc43)cc2)sc1C(=O)c1c(F)cccc1F [Example G184] |  |  | 36% | 34% |  |  | 58% | 17% | 
16 | Nc1nc(Nc2ccc(C(=O)N3CCC(O)C3)cc2)sc1C(=O)c1c(F)cccc1F (stereo not drawn) [Example G55] |  |  | 16% | 22% |  |  | 57% |  | 
17 | Cc1ccc(CCNC(=O)c2ccc(Nc3nc(N)c(C(=O)c4c(F)cccc4F)s3)cc2)cc1 [Example G111] |  |  | 20% | 15% |  |  | 52% | 0% | 
18 | CC(C)OCCNC(=O)c1ccc(Nc2nc(N)c(C(=O)c3c(F)cccc3F)s2)cc1 [Example G168] |  |  | 17% | 4% |  |  | 52% | 25% | 
19 | Nc1nc(Nc2ccc(C(=O)N3CCCC(O)C3)cc2)sc1C(=O)c1c(F)cccc1F (stereo not drawn) [Example G49] |  |  | 4% | 7% |  |  | 57% |  | 
20 | Nc1nc(Nc2ccc(C(=O)NCc3ccc4c(c3)OCO4)cc2)sc1C(=O)c1c(F)cccc1F [Example G172] |  |  | 54% | 36% |  |  | 61% | 37% | 
21 | CC(=O)NCCNC(=O)c1ccc(Nc2nc(N)c(C(=O)c3c(F)cccc3F)s2)cc1 [Example G142] |  |  | 20% | 11% |  |  | 46% | 0% | 
22 | CCC(CO)NC(=O)c1ccc(Nc2nc(N)c(C(=O)c3c(F)cccc3F)s2)cc1 (stereo not drawn) [Example G183] |  |  | 38% | 23% |  |  |  |  | HCT-116 % Inhibition at 0.1 μM (HCT-116 cell line; HCT-116, at 0.1 μM, 0.1 µM): 11%; HCT-116 % Inhibition at 0.25 μM (HCT-116 cell line; HCT-116, at 0.25 μM, 0.25 µM): 48%
23 | CCN(Cc1ccncc1)C(=O)c1ccc(Nc2nc(N)c(C(=O)c3c(F)cccc3F)s2)cc1 [Example G28] |  |  | 19% | 1% |  |  | 66% |  | 
24 | CC(C)N(Cc1ccccc1)C(=O)c1ccc(Nc2nc(N)c(C(=O)c3c(F)cccc3F)s2)cc1 [Example G70] |  |  | 10% | −4% |  |  | 53% |  | 
25 | CN(CCc1ccccn1)C(=O)c1ccc(Nc2nc(N)c(C(=O)c3c(F)cccc3F)s2)cc1 [Example G71] |  |  | 16% | 3% |  |  | 59% |  | 
26 | CC(CN(C)C)NC(=O)c1ccc(Nc2nc(N)c(C(=O)c3c(F)cccc3F)s2)cc1O (stereo not drawn) [Example D2, 4-[4-Amino-5-(2,6-difluoro-benzoyl)-thiazol-2-ylamino]-N-(2-dimethylamino-1RS-methyl-ethyl)-2-hydroxy-benzamide] |  |  |  |  |  |  |  |  | IC50 (HCT-116 cell line): 580 nM; Ki (human CDK4/cyclin D3): 25 nM; Ki (CDK2/cyclin A): 51 nM
27 | CCC(NC(=O)c1ccc(Nc2nc(N)c(C(=O)c3c(F)cccc3F)s2)cc1)c1ccccc1 (stereo not drawn) [Example G151] |  |  | 7% | 16% |  |  | 94% | 27% | 
28 | CC(C)[C@H](CN(C)C)NC(=O)c1ccc(Nc2nc(N)c(C(=O)c3c(F)cccc3F)s2)cc1 [Example A47, 4-[4-Amino-5-(2,6-difluoro-benzoyl)-thiazol-2-ylamino]-N-(1R-dimethylaminomethyl-2-methyl-propyl)-benzamide] |  |  |  |  |  |  |  |  | IC50 (HCT-116 cell line): 580 nM; Ki (human CDK4/cyclin D3): 5 nM; Ki (CDK2/cyclin A): 55 nM
29 | Nc1nc(Nc2ccc(C(=O)NCc3ccccc3)cc2)sc1C(=O)c1c(F)cccc1F [Example G181] |  |  | 36% | 30% |  |  | 75% | 28% | 
30 | N#CCCN(CC1CCCO1)C(=O)c1ccc(Nc2nc(N)c(C(=O)c3c(F)cccc3F)s2)cc1 (stereo not drawn) [Example G179] |  |  | 10% | −5% |  |  | 42% | 21% | 
31 | COCCCNC(=O)c1ccc(Nc2nc(N)c(C(=O)c3c(F)cccc3F)s2)cc1 [Example G98] |  |  | 11% | −24% |  |  | 60% | 22% | 
32 | Nc1nc(Nc2ccc(C(=O)NCCCn3ccnc3)cc2)sc1C(=O)c1c(F)cccc1F [Example G143] |  |  | 27% | 2% |  |  | 65% | 0% | 
33 | CN(CC1OCCO1)C(=O)c1ccc(Nc2nc(N)c(C(=O)c3c(F)cccc3F)s2)cc1 [Example G42] |  |  | 7% | 10% |  |  | 54% |  | 
34 | COC(=O)[C@H](C)NC(=O)c1ccc(Nc2nc(N)c(C(=O)c3c(F)cccc3F)s2)cc1 [Example G145] |  |  | 18% | 19% |  |  | 68% | 0% | 
